# Measurements reported in patent US9116112B2, “UV protective skin treatment compositions and screening methods” (JR Chem LLC, priority 2011, dated 2015).
# Where “and” joins values, the source holds several entries; their conditions need not be identical. Equal values may be shown once.
# What was measured:
# [1] = Briggs-Rauscher Oscillation Reaction Method (BROM) antioxidant capacity; type: biochemical; settings: for calculated BROM value at product concentration: Arbutin at 0.2 wt. %, BHT at 0.1 wt. %; for BROM value of individual antioxidant: text b80, rounded values used for calculation; for BROM: Table 2, common antioxidants present in body fluids and tissues
# Balb/c 3T3 cells = assay: 3T3 Neutral Red Uptake Phototoxicity Test (3T3 NRU PT); type: cell-based, murine; settings: positive control, dose dates 03/10/11, 03/15/11, 03/22/11
# From the text: The 3T3 Neutral Red Phototoxicity Test (3T3 NRU PT) was used to assess toxicological performance. It is a relatively new assay that was adopted by regulatory agencies such as OECD and FDA as an accepted method for the assessment of phototoxic potential of test substances. It is an in-vitro toxicological assessment test used to determine cytotoxic and photo(cyto)toxicity effect of a test article to murine fibroblasts in the presence or absence of UVA light (99% UVA/1% UVB). The 3T3 Neutral Red Uptake Phototoxicity Assay (3T3 NRU PT) can be utilized to identify the phototoxic effect of a test substance induced by the combination of test substance and light and is based on the comparison of the cytotoxic effect of a test substance when tested after the exposure and in the absence of exposure to a non-cytotoxic dose of UVA/vis light. Cytotoxicity is expressed as a concentration dependent reduction of the uptake of the vital dye—Neutral Red. […]
# For both the range finding screen and the definitive test, Balb/c 3T3 cells were seeded in the central 60 wells of duplicate 96-well microplates per test article and maintained in culture for 24 hours. […] After UV irradiation, the treatment medium was replaced with culture medium and after 24 hours, cell viability was determined by neutral red uptake for 3 hours. […]
# [2] = Table 2, Water or Lipid; cited from earlier work
compound,measurement,setting,value
"OC[C@H]1O[C@@H](Oc2ccc(O)cc2)[C@H](O)[C@@H](O)[C@@H]1O (racemic) [Arbutin Racemic mixture, Arbutin]",Result [s/μg] (BROM by Strength),"[1]; Table 3, solvent 50% Ethanol",47 s/µg
same,Result [s/μg] (BROM by Strength),"[1]; Table 3, solvent Water",49.4 s/µg
OC[C@H]1O[C@@H](Oc2ccc(O)cc2)[C@H](O)[C@@H](O)[C@@H]1O [8 Arbutin],Result [s/μg] (BROM by Strength),"[1]; Table 3, solvent Water",40.53 s/µg
NC(=O)NC1NC(=O)NC1=O (centres unmarked) [Allantoin],Result [s/μg] (BROM by Strength),"[1]; Table 3, solvent Water",0 s/µg
OC[C@H]1O[C@@H](Oc2ccc(O)cc2)[C@H](O)[C@@H](O)[C@@H]1O [Arbutin],calculated BROM value at product concentration,[1],0.1
same,BROM value of individual antioxidant,[1],50 s/µg
"O=C1O[C@H]([C@@H](O)CO)C(O)=C1O [Ascorbic Acid, Ascorbic acid]",BROM value,[1],0.00105 s/µg
same,electron scavenging capacity (BROM),[1],do not show measurable electron scavenging capacity
same,BROM,[1],0.00105 s/µg
same,Result [s/μg] (BROM by Strength),"[1]; Table 3, solvent Water",0.00105 s/µg
O=C1O[C@H]([C@@H](O)CO)C(O)=C1O[C@H]1O[C@H](CO)[C@@H](O)[C@H](O)[C@H]1O [Ascorbyl Glucoside],Result [s/μg] (BROM by Strength),"[1]; Table 3, solvent Water",No clear
"CC(C)c1c(C(=O)Nc2ccccc2)c(-c2ccccc2)c(-c2ccc(F)cc2)n1CC[C@@H](O)C[C@@H](O)CC(=O)O [Atorvastatin (Lipitor), Atorvastatin]",Result [s/μg] (BROM by Strength),"[1]; Table 3, solvent Ethanol",8.41 s/µg
"Cc1cc(C(C)(C)C)c(O)c(C(C)(C)C)c1 [BHT, butylatedhydroxytoluene]",calculated BROM value at product concentration,[1],0.03
same,Result [s/μg] (BROM by Strength),"[1]; Table 3, solvent 50% Ethanol",34.53 s/µg
same,Result [s/μg] (BROM by Strength),"[1]; Table 3, solvent Ethanol",29.4 s/µg
same,BROM value of individual antioxidant,[1],30 s/µg
"CN(C)CCCN1c2ccccc2Sc2ccc(Cl)cc21 [CPZ, Chloropromazine]",EC50 +SSL,Balb/c 3T3 cells; +SSL,0.394 µg/mL and 0.725 µg/mL and 0.682 µg/mL
same,EC50 No SSL,Balb/c 3T3 cells; dark,19.592 µg/mL and 24.805 µg/mL and 26.457 µg/mL
O=C[C@H](O)[C@@H](O)[C@H](O)[C@H](O)CO [D-Glucose],Result [s/μg] (BROM by Strength),"[1]; Table 3, solvent Water",0 s/µg
N[C@@H](CCC(=O)N[C@@H](CS)C(=O)NCC(=O)O)C(=O)O [Glutathione],Solubility,[2],Water
same,BROM,[1],0.000991 s/µg
same,Result [s/μg] (BROM by Strength),"[1]; Table 3, solvent Water",0.000991 s/µg
COc1ccc([C@@H]2CC(=O)c3c(O)cc(O[C@@H]4O[C@H](CO[C@@H]5O[C@@H](C)[C@H](O)[C@@H](O)[C@H]5O)[C@@H](O)[C@H](O)[C@H]4O)cc3O2)cc1O [Hesperidin],Result [s/μg] (BROM by Strength),"[1]; Table 3, solvent Water",5.38 s/µg
Oc1ccc(O)cc1 [Hydroquinone],Result [s/μg] (BROM by Strength),"[1]; Table 3, solvent 50% Ethanol",1.1 s/µg
same,Result [s/μg] (BROM by Strength),"[1]; Table 3, solvent Water",1.31 s/µg
COc1ccc(C(=O)c2ccccc2)c(O)c1 [Oxybenzone],Result [s/μg] (BROM by Strength),"[1]; Table 3, solvent Ethanol",0 s/µg
Oc1cccc(O)c1 [Resorcinol],Result [s/μg] (BROM by Strength),"[1]; Table 3, solvent Water",30.39 s/µg
CCCCC(CC)COC(=O)C(C#N)=C(c1ccccc1)c1ccc(OC)cc1 (centres unmarked) [Solastay S1],Result [s/μg] (BROM by Strength),"[1]; Table 3, solvent Ethanol",0 s/µg
CC(C)(C)c1cc(O)ccc1O [Tert-Butylhydroquinone],Result [s/μg] (BROM by Strength),"[1]; Table 3, solvent Ethanol",0.13 s/µg
CC1=C(/C=C/C(C)=C/C=C/C(C)=C/C(=O)O)C(C)(C)CCC1 [Tretinoin],BROM,[1],0 s/µg
same,Result [s/μg] (BROM by Strength),"[1]; Table 3, solvent Ethanol",0 s/µg
Cc1c(C)c2c(c(C)c1O)CCC(C)(C(=O)O)O2 (centres unmarked) [Trolox],electron scavenging capacity (BROM),[1],do not show measurable electron scavenging capacity
same,Result [s/μg] (BROM by Strength),"[1]; Table 3, solvent Ethanol",0.021 s/µg
"COc1c(O)c(C)c(C/C=C(\C)CC/C=C(\C)CC/C=C(\C)CC/C=C(\C)CC/C=C(\C)CC/C=C(\C)CC/C=C(\C)CC/C=C(\C)CC/C=C(\C)CCC=C(C)C)c(O)c1OC [Ubiquinol (coenzyme Q10), Ubiquinol]",Solubility,[2],Lipid
same,BROM,[1],0 s/µg
"O=c1[nH]c(=O)c2[nH]c(=O)[nH]c2[nH]1 [Uric Acid, Uric acid]",Solubility,[2],Water
same,BROM,[1],9.14 s/µg
same,Result [s/μg] (BROM by Strength),"[1]; Table 3, solvent Water",9.14 s/µg
CC(=O)Oc1c(C)c(C)c2c(c1C)CCC(C)(CCC[C@H](C)CCC[C@H](C)CCCC(C)C)O2 (some centres unmarked) [Vitamin E Acetate],electron scavenging capacity (BROM),[1],do not show measurable electron scavenging capacity
same,Result [s/μg] (BROM by Strength),"[1]; Table 3, solvent Ethanol",0 s/µg
"Cc1c(C)c2c(c(C)c1O)CC[C@@](C)(CCC[C@H](C)CCC[C@H](C)CCCC(C)C)O2 [α-Tocopherol (vitamin E), α-Tocopherol]",Solubility,[2],Lipid
same,BROM value,[1],0 s/µg
same,BROM,[1],0 s/µg
Carotenes,Solubility,[2],Lipid
